According to US11104648B2, “Pyrazole derivative” (Zhejiang Research Institute of Chemical Industry Co., Ltd., priority 2018, dated 2021):
Like-named read-outs stand apart in the source and are kept apart here.

Key:
Assay type in all cases: in vivo
[1] = tested on: Eggs of Tetranychus Cinnabarinus; test: Activity assay of eggs of Tetranychus cinnabarinus (spray method, ovicidal); details: Tetranychus cinnabarinus; for pest or weed control at 2 µg/mL: concentration 2 mg/L
Experimental: According to the solubility of the test compound, the crude drug was dissolved in N N-dimethylformamide, and then prepared into a test solution of the desired concentration with 1‰ Tween 80 aqueous solution. The content of N. N-dimethylformamide in the solution should not exceed 10%.
Spray method. The broad bean leaves with petioles were cut and inserted into a bottle with water. A certain number of female mites were placed, 24h later, adult mites were removed, and spray treatment was performed in 24 h. The experiment was repeated three times, and a blank control was set, and placed to an observation room (26±2° C., humidity 70%˜80%, 16h light per day) for culture. When the blank control group was incubated, the results were investigated. The non-incubated ones were used as death for investigation.

[2] = tested on: adult Tetranychus cinnabarinus; test: Activity assay of adult Tetranychus cinnabarinus (whole-plant spray on bean seedlings); details: 48 h; for pest or weed control at 1.25 µg/mL: concentration 1.25 mg/L
Experimental: According to the solubility of the test compound, the crude drug was dissolved in N, N-dimethlfornamide, and then prepared into a test solution of the desired concentration with 1‰ Tween 80 aqueous solution. The content of N,N-dimethylformamide in the solution should not exceed 10%.
Two euphylla bean seedlings were taken, after inoculated with adult Tetranychus cinnabarinus and the base number was investigated, whole plants were sprayed with a hand-held sprayer. The experiment was repeated three times for each treatment, after treatment, placed in a standard observation room after treatment, to investigate the survival number of mites in 48 hand calculate the death rate.

[3] = tested on: Tetranychus cinnabarinus Nymphs; test: Activity assay of Tetranychus cinnabarinus nymphs (spray on broad bean leaves)
Experimental: According to the solubility of the test compound, the crude drug was dissolved in N, N-dimethylformamide, and then prepared into a test solution of the desired concentration with 1‰ Tween 80 aqueous solution. The content of N,N-dimethylformamide in the solution should not exceed 10%.
The broad bean leaves with petioles were cut and inserted into a small bottle with water. A certain number of brightly colored, active female adult mites were placed, 24h later, adult mites were removed, and leaves with insufficient eggs were removed. When eggs were hatched and grew into nymphs, spray treatment was performed. The experiment was repeated three times, and a blank control was set, and placed to an observation room (26±2° C., humidity 70%˜80%, 16h light per day) for culture. 48 h later, the results were investigated. The nymphs were gently touched during investigation, and if no response, they were regarded as deaths.

[4] = concentration 5 mg/L, spray, non-incubated eggs counted as dead, read-out: ovicidal activity
[5] = concentration 2.5 mg/L, read-out: adult mite-killing activity
[6] = 48 h, concentration 2.5 mg/L, read-out: nymph-killing activity
[7] = read-out: adult mite-killing activity
[8] = 48 h, read-out: nymph-killing activity
[9] = concentration 2.5 mg/L, 48 h, read-out: nymph-killing activity
[10] = spray, read-out: ovicidal activity
[11] = eggs, parallel determination, read-out: Death rate (%)
[12] = adult mites, parallel determination, read-out: Death rate (%)
[13] = 48 h, concentration 2 mg/L, read-out: nymph-killing activity
[14] = 48 h, nymphs, concentration 0.5 mg/L, parallel determination, read-out: Death rate (%)

Row | SMILES | pest or weed control at 5 µg/mL [1, 4] [%] | pest or weed control at 2.5 µg/mL [2, 5] [%] | pest or weed control at 2.5 µg/mL [3, 6] [%] | further results
1 | CCC(=O)OCO/C(=C(/C#N)c1ccc(C(C)(C)C)cc1)c1c(C)c(C)nn1C [Compound 152] | ≥ 90 | ≥ 90 | ≥ 95 | –
2 | CCCC(=O)OCO/C(=C(/C#N)c1ccc(C(C)(C)C)cc1)c1c(C)c(C)nn1C [Compound 153] | ≥ 90 | ≥ 90 | ≥ 95 | –
3 | Cc1nn(C)c(/C(OCOC(=O)C(C)C)=C(\C#N)c2ccc(C(C)(C)C)cc2)c1C [Compound 154] | ≥ 90 | ≥ 90 | ≥ 95 | –
4 | Cc1nn(C)c(/C(OCOC(=O)C(C)(C)C)=C(\C#N)c2ccc(C(C)(C)C)cc2)c1C [Compound 155] | ≥ 90 | ≥ 90 | ≥ 95 | –
5 | CCCCC(=O)OCO/C(=C(/C#N)c1ccc(C(C)(C)C)cc1)c1c(C)c(C)nn1C [Compound 156] | ≥ 90 | ≥ 90 | ≥ 95 | –
6 | Cc1nn(C)c(/C(OCOC(=O)CC(C)C)=C(\C#N)c2ccc(C(C)(C)C)cc2)c1C [Compound 157] | ≥ 90 | ≥ 90 | ≥ 95 | –
7 | COCC(=O)OCO/C(=C(/C#N)c1ccc(C(C)(C)C)cc1)c1c(C)c(C)nn1C [Compound 158] | ≥ 90 | ≥ 90 | ≥ 95 | –
8 | Cc1nn(C)c(/C(OCOC(=O)C2CC2)=C(\C#N)c2ccc(C(C)(C)C)cc2)c1C [Compound 159] | ≥ 90 | ≥ 90 | ≥ 95 | –
9 | CSCC(=O)OCO/C(=C(/C#N)c1ccc(C(C)(C)C)cc1)c1c(C)c(C)nn1C [Compound 160] | ≥ 90 | ≥ 90 | ≥ 95 | –
10 | Cc1nn(C)c(/C(OCOC(=O)C2CCCCC2)=C(\C#N)c2ccc(C(C)(C)C)cc2)c1C [Compound 161] | ≥ 90 | ≥ 90 | ≥ 95 | –
11 | Cc1nn(C)c(/C(OCOC(=O)CF)=C(\C#N)c2ccc(C(C)(C)C)cc2)c1C [Compound 162] | – | – | – | pest or weed control at 5 µg/mL ([1]; read-out: ovicidal activity): ≥ 90%; pest or weed control at 2.5 µg/mL [2, 7]: ≥ 90%; pest or weed control at 2.5 µg/mL [3, 8]: ≥ 95%
12 | Cc1nn(C)c(/C(OCOC(=O)C(F)(F)F)=C(\C#N)c2ccc(C(C)(C)C)cc2)c1C [Compound 163] | ≥ 90 | ≥ 90 | ≥ 95 | –
13 | Cc1nn(C)c(/C(OCOC(=O)c2ccccc2)=C(\C#N)c2ccc(C(C)(C)C)cc2)c1C [Compound 164] | ≥ 90 | ≥ 90 | ≥ 95 | –
14 | Cc1nn(C)c(/C(OCOC(=O)Cc2ccccc2)=C(\C#N)c2ccc(C(C)(C)C)cc2)c1C [Compound 165] | ≥ 90 | ≥ 90 | – | pest or weed control at 2.5 µg/mL [3, 9]: ≥ 95%
15 | CCC(C)(C)C(=O)OCO/C(=C(/C#N)c1ccc(C(C)(C)C)cc1)c1c(C)c(C)nn1C [Compound 166] | ≥ 90 | ≥ 90 | ≥ 95 | –
16 | C=CC(=O)OCO/C(=C(/C#N)c1ccc(C(C)(C)C)cc1)c1c(C)c(C)nn1C [Compound 167] | ≥ 90 | ≥ 90 | ≥ 95 | –
17 | CC(=O)OC(C)O/C(=C(/C#N)c1ccc(C(C)(C)C)cc1)c1c(C)c(C)nn1C (stereo not drawn) [Compound 176] | ≥ 90 | ≥ 90 | ≥ 95 | –
18 | CCC(=O)OC(C)O/C(=C(/C#N)c1ccc(C(C)(C)C)cc1)c1c(C)c(C)nn1C (stereo not drawn) [Compound 177] | ≥ 90 | ≥ 90 | ≥ 95 | –

Row | SMILES | pest or weed control at 5 µg/mL [1, 4] [%] | pest or weed control at 2.5 µg/mL [2, 5] [%] | pest or weed control at 2.5 µg/mL [3, 6] [%] | further results
19 | CCCC(=O)OC(C)O/C(=C(/C#N)c1ccc(C(C)(C)C)cc1)c1c(C)c(C)nn1C (stereo not drawn) [Compound 178] | ≥ 90 | ≥ 90 | ≥ 95 | –
20 | Cc1nn(C)c(/C(OC(C)OC(=O)C(C)C)=C(\C#N)c2ccc(C(C)(C)C)cc2)c1C (stereo not drawn) [Compound 179] | ≥ 90 | ≥ 90 | ≥ 95 | –
21 | Cc1nn(C)c(/C(OC(C)OC(=O)C(C)(C)C)=C(\C#N)c2ccc(C(C)(C)C)cc2)c1C (stereo not drawn) [Compound 180] | ≥ 90 | ≥ 90 | ≥ 95 | –
22 | CCCCC(=O)OC(C)O/C(=C(/C#N)c1ccc(C(C)(C)C)cc1)c1c(C)c(C)nn1C (stereo not drawn) [Compound 181] | ≥ 90 | ≥ 90 | ≥ 95 | –
23 | Cc1nn(C)c(/C(OC(C)OC(=O)CC(C)C)=C(\C#N)c2ccc(C(C)(C)C)cc2)c1C (stereo not drawn) [Compound 182] | ≥ 90 | ≥ 90 | ≥ 95 | –
24 | COCC(=O)OC(C)O/C(=C(/C#N)c1ccc(C(C)(C)C)cc1)c1c(C)c(C)nn1C (stereo not drawn) [Compound 183] | ≥ 90 | ≥ 90 | ≥ 95 | –
25 | Cc1nn(C)c(/C(OC(C)OC(=O)C2CC2)=C(\C#N)c2ccc(C(C)(C)C)cc2)c1C (stereo not drawn) [Compound 184] | ≥ 90 | ≥ 90 | ≥ 95 | –
26 | CSCC(=O)OC(C)O/C(=C(/C#N)c1ccc(C(C)(C)C)cc1)c1c(C)c(C)nn1C (stereo not drawn) [Compound 185] | ≥ 90 | ≥ 90 | ≥ 95 | –
27 | Cc1nn(C)c(/C(OC(C)OC(=O)C2CCCCC2)=C(\C#N)c2ccc(C(C)(C)C)cc2)c1C (stereo not drawn) [Compound 186] | ≥ 90 | ≥ 90 | ≥ 95 | –
28 | Cc1nn(C)c(/C(OC(C)OC(=O)CF)=C(\C#N)c2ccc(C(C)(C)C)cc2)c1C (stereo not drawn) [Compound 187] | – | – | – | pest or weed control at 5 µg/mL ([1]; read-out: ovicidal activity): ≥ 90%; pest or weed control at 2.5 µg/mL [2, 7]: ≥ 90%; pest or weed control at 2.5 µg/mL [3, 8]: ≥ 95%
29 | Cc1nn(C)c(/C(OC(C)OC(=O)C(F)(F)F)=C(\C#N)c2ccc(C(C)(C)C)cc2)c1C (stereo not drawn) [Compound 188] | ≥ 90 | ≥ 90 | ≥ 95 | –
30 | Cc1nn(C)c(/C(OC(C)OC(=O)c2ccccc2)=C(\C#N)c2ccc(C(C)(C)C)cc2)c1C (stereo not drawn) [Compound 189] | ≥ 90 | ≥ 90 | ≥ 95 | –
31 | Cc1nn(C)c(/C(OC(C)OC(=O)Cc2ccccc2)=C(\C#N)c2ccc(C(C)(C)C)cc2)c1C (stereo not drawn) [Compound 190] | ≥ 90 | ≥ 90 | – | pest or weed control at 2.5 µg/mL [3, 9]: ≥ 95%
32 | CCC(C)(C)C(=O)OC(C)O/C(=C(/C#N)c1ccc(C(C)(C)C)cc1)c1c(C)c(C)nn1C (stereo not drawn) [Compound 191] | ≥ 90 | ≥ 90 | ≥ 95 | –
33 | C=CC(=O)OC(C)O/C(=C(/C#N)c1ccc(C(C)(C)C)cc1)c1c(C)c(C)nn1C (stereo not drawn) [Compound 192] | ≥ 90 | ≥ 90 | ≥ 95 | –
34 | CCn1nc(C)cc1/C(OCOC(C)=O)=C(\C#N)c1ccc(C(C)(C)C)cc1 [Compound 226] | ≥ 90 | ≥ 90 | ≥ 95 | pest or weed control at 2 µg/mL [1, 10]: ≥ 90%; pest or weed control at 2 µg/mL [1, 11]: 100%; pest or weed control at 1.25 µg/mL [2, 12]: 96%; pest or weed control at 1.25 µg/mL [2, 7]: ≥ 90%; pest or weed control at 2 µg/mL [3, 13]: ≥ 90%; pest or weed control at 0.5 µg/mL [3, 14]: 90%
35 | CCC(=O)OCO/C(=C(/C#N)c1ccc(C(C)(C)C)cc1)c1cc(C)nn1CC [Compound 227] | ≥ 90 | ≥ 90 | ≥ 95 | pest or weed control at 2 µg/mL [1, 10]: ≥ 90%; pest or weed control at 2 µg/mL [1, 11]: 97%; pest or weed control at 1.25 µg/mL [2, 12]: 98%; pest or weed control at 1.25 µg/mL [2, 7]: ≥ 90%; pest or weed control at 2 µg/mL [3, 13]: ≥ 90%; pest or weed control at 0.5 µg/mL [3, 14]: 94%
